Measured values reported in article PMC3636379, “Intracellular accumulation of aggregated pyroglutamate amyloid beta: convergence of aging and Aβ pathology at the lysosome” (Age, 2012).

Key:
recombinant CTD = molecular target: T1, recombinant CTD (Homo sapiens, UniProt P07339); experiment: Degradation assay of internally quenched fluorescent Aβ peptides with cathepsin D; format: in vitro ADME; conditions: 10 pmol, 5 mU recombinant CTD, 100 mM sodium acetate pH 5.0, 37 °C, fluorescence ex 485 / em 520 nm, mean ± SD, two independent experiments (n = 10)
T1 construct: purchased Sigma
T1 sequence (P07339 65-412): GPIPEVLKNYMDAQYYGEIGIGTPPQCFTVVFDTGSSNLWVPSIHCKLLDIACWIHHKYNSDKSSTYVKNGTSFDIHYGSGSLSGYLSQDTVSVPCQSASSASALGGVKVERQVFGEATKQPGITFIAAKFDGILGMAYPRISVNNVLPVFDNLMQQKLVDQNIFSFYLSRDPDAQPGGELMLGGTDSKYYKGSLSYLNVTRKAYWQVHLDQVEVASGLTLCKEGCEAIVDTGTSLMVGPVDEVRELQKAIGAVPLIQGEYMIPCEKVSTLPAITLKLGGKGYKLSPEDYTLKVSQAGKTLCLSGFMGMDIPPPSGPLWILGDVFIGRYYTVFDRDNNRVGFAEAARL
Experimental: Therefore, we investigated whether the pE-modified Aβ is more resistant to lysosomal degradation. To this end, a degradation assay with the major lysosomal hydrolase CTD was performed. For this purpose, we used internally quenched fluorescent Aβ peptides. Degradation of the peptides removes the quencher and restores the fluorescent signal (Reits et al. [2003]), thus allowing analysis of degradation over time by monitoring the increase in fluorescence. […] To investigate the effect of aggregation on degradation, we used pre-aggregated Aβ1-40 and Aβ3(pE)-40 in the CTD assay. […] Upon aggregation, the overall degradation is hampered, but the observed difference between the peptides is retained.
Aβ peptides containing fluorophore and quencher were synthesized by solid phase synthesis using an Fmoc strategy at the NKI peptide facility. […] Peptides were purified by RP-HPLC and evidenced the expected molecular mass as determined by mass spectrometry.
Immediately prior to use, HFIP-treated peptide films of fluorescently labeled internally quenched Aβ were resuspended in DMSO and further diluted in PBS. […] Degradation of quenched peptides was followed by monitoring the increase in fluorescence (excitation, 485–12 nm; emission, 520 nm, Fluostar Omega) at 37 °C. Background fluorescence of peptide incubated in buffer without CTD controls was subtracted. […]

[1] = system: differentiated SK-N-SH cells; experiment: Lysosomal membrane permeabilization: immunofluorescent staining of CTD; format: cell-based; conditions: 1 μM Aβ oligomers or hydroxychloroquine, 16 h; confocal microscopy
Experimental: To investigate whether Aβ3(pE)-42 oligomers affect the integrity of the lysosomes, lysosomal membrane permeabilization (LMP) was analyzed in differentiated SK-N-SH cells. A distinctive sign of LMP is the translocation of soluble lysosomal components, from the lysosomal lumen to the cytosol (Boya et al. [2003]). Differentiated SK-N-SH cells were treated with Aβ oligomers and the leakage of cathepsin D (CTD), a soluble lysosomal enzyme, from the lysosomal lumen to the cytosol was analyzed after subcellular fractionation on Western blot and by immunofluorescent staining. Treatment with Aβ3(pE)-42 oligomers led to a decrease of CTD in the membrane fraction (which also contained the lysosomes) whereas the cytosolic CTD was increased. […] The result was confirmed by immunofluorescent staining of CTD. Untreated cells reveal a particulate staining pattern, indicative of its localization within lysosomes (Fig. 1b). […] SK-N-SH and HeLa cells were cultured in Dulbecco’s modified Eagle’s medium with GlutaMAX (Gibco BRL, Carlsbad, CA, USA) supplemented with 10 % fetal calf serum (FCS, Gibco BRL), 100 μg/ml streptomycin, and 100 U/ml penicillin. Cell lines are routinely checked for mycoplasma contamination using a specific 16S rRNA PCR-based assay; all cells used in this study were mycoplasma free. […]

[2] = system: differentiated SK-N-SH cells; experiment: Lysosomal membrane permeabilization: CTD in subcellular fractions, Western blot; format: cell-based; conditions: 1 μM oligomers, 16 h, three experiments
Experimental: To investigate whether Aβ3(pE)-42 oligomers affect the integrity of the lysosomes, lysosomal membrane permeabilization (LMP) was analyzed in differentiated SK-N-SH cells. A distinctive sign of LMP is the translocation of soluble lysosomal components, from the lysosomal lumen to the cytosol (Boya et al. [2003]). Differentiated SK-N-SH cells were treated with Aβ oligomers and the leakage of cathepsin D (CTD), a soluble lysosomal enzyme, from the lysosomal lumen to the cytosol was analyzed after subcellular fractionation on Western blot and by immunofluorescent staining. Treatment with Aβ3(pE)-42 oligomers led to a decrease of CTD in the membrane fraction (which also contained the lysosomes) whereas the cytosolic CTD was increased. […] The result was confirmed by immunofluorescent staining of CTD. Untreated cells reveal a particulate staining pattern, indicative of its localization within lysosomes (Fig. 1b).
SK-N-SH and HeLa cells were cultured in Dulbecco’s modified Eagle’s medium with GlutaMAX (Gibco BRL, Carlsbad, CA, USA) supplemented with 10 % fetal calf serum (FCS, Gibco BRL), 100 μg/ml streptomycin, and 100 U/ml penicillin. Cell lines are routinely checked for mycoplasma contamination using a specific 16S rRNA PCR-based assay; all cells used in this study were mycoplasma free. […]

Substance | time to reach the half-max fluorescence of degradation (t 1/2) (recombinant CTD; not pre-aggregated, internally quenched fluorescent peptide (Oregon green 488 at aa 22, dabcyl at aa 12)) | time to reach the half-max fluorescence of degradation (t 1/2) (recombinant CTD; pre-aggregated peptide, internally quenched fluorescent peptide) | CTD staining pattern (release from lysosomes to cytoplasm) [1] | CTD in the membrane fraction (containing the lysosomes) [2] | cytosolic CTD [2]
Aβ1-40: internally quenched fluorescent Aβ peptide, Oregon green 488 at amino acid 22 and dabcyl at amino acid 12; pre-aggregated or not | 48.9 ± 4.3 min | 63.6 ± 10.0 min |  |  | 
Aβ1-42: synthetic amyloid beta 1-42 purchased from Anaspec, used as oligomers |  |  | same pattern but to a lesser extent | did not change | did not change
